PubChem BioAssay (NCI)
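Assay format: 96-well plates, 48-hour exposure. Abbreviation: GI50, concentration required for 50% inhibition of growth. TGI denotes the concentration required for complete inhibition of growth.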

Columns and labels:
Assay in all cases: NCI-60 cell line screen, 48 h
NCI-H226 lung = system: NCI-H226 lung
UACC-257 melanoma = system: UACC-257 melanoma
MALME-3M melanoma = system: MALME-3M melanoma
HCT-15 colon = system: HCT-15 colon
HOP-92 NSCLC = system: HOP-92 NSCLC
NCI-H23 lung = system: NCI-H23 lung
SNB-75 CNS = system: SNB-75 CNS
MOLT-4 leukemia = system: MOLT-4 leukemia
NCI/ADR-RES ovarian = system: NCI/ADR-RES ovarian
BT-549 breast = system: BT-549 breast

Row | Compound | TGI (NCI-H226 lung) [µM] | TGI (UACC-257 melanoma) [µM] | TGI (MALME-3M melanoma) [µM] | TGI (HCT-15 colon) [µM] | TGI (HOP-92 NSCLC) [µM] | TGI (NCI-H23 lung) [µM] | TGI (SNB-75 CNS) [µM] | TGI (MOLT-4 leukemia) [µM] | GI50 (NCI-H226 lung) [µM] | GI50 (UACC-257 melanoma) [µM] | GI50 (MALME-3M melanoma) [µM] | GI50 (HCT-15 colon) [µM] | GI50 (HOP-92 NSCLC) [µM] | GI50 (NCI-H23 lung) [µM] | GI50 (MOLT-4 leukemia) [µM] | GI50 (NCI/ADR-RES ovarian) [µM] | TGI (NCI/ADR-RES ovarian) [µM] | GI50 (SNB-75 CNS) [µM] | GI50 (BT-549 breast) [µM] | TGI (BT-549 breast) [µM]
1 | O=C(/C=C/c1ccc(Cl)c(Cl)c1)c1cccc2ccccc12 | 28.3 | 29.5 | 32.4 | 7.12 | 31.4 | 22.5 | 14 | – | – | – | – | – | – | – | – | – | – | – | – | –
2 | CC1=C(C(=O)Nc2ccc(Cl)c(Cl)c2)C(c2ccc([N+](=O)[O-])cc2)C(C(=O)Nc2ccc(Cl)c(Cl)c2)=C(C)N1 | 11.6 | 7.84 | 7.06 | 7.88 | 6.06 | 5.98 | 20.5 | > 100 | – | – | – | – | – | – | – | – | – | – | – | –
3 | O=C(Nc1ccccc1OC(=O)c1ccccc1)c1ccccc1 | > 100 | > 100 | > 100 | > 100 | > 100 | > 100 | > 100 | > 100 | > 100 | 35.1 | 14.5 | 4.37 | 23.1 | 8.05 | 3.55 | 19.2 | > 100 | 7.72 | – | –
4 | N#CCN1C(=O)c2cc([N+](=O)[O-])cc3cc([N+](=O)[O-])cc(c23)C1=O | 49.9 | 28.6 | 28 | 20.3 | 32.5 | 32.9 | 84.8 | > 22.8 | – | – | – | – | – | – | – | – | – | – | – | –
5 | O=C1c2ccccc2N2OC3(N4CCCC4)CCCCC3C12c1ccccc1 (stereo not given) | > 100 | 45.6 | 38.7 | > 100 | 29.7 | 86 | > 100 | > 100 | – | – | – | – | – | – | – | – | – | – | – | –
6 | CCCC(S(=O)(=O)c1ccccc1)S(=O)(=O)c1ccccc1 | > 100 | > 100 | > 100 | > 100 | – | > 100 | > 100 | > 100 | – | – | – | – | – | – | – | – | – | – | – | –
7 | O=C1C=C(O)C(=Cc2c(O)cc(O)cc2O)C(O)=C1 | > 100 | > 100 | > 100 | > 100 | > 100 | > 100 | > 100 | > 100 | – | – | – | – | – | – | – | – | – | – | – | –
8 | N#CNc1nc(N)c(-c2ccc(Cl)cc2)c(C(=O)Nc2nccs2)n1 | > 100 | > 100 | > 100 | > 100 | > 100 | > 100 | > 100 | > 100 | – | – | – | – | – | – | – | – | – | – | – | –
9 | COc1ccc(-c2cc(=O)c3c(O)cccc3o2)c(OC)c1OC | > 100 | > 100 | > 100 | > 100 | > 100 | > 100 | 75.5 | > 100 | – | – | – | – | – | – | – | – | – | – | – | –
10 | Cc1cc2c(c(C(N)=O)c1C)-c1cc(Cl)cc(Cl)c1C2=O | – | > 100 | > 100 | > 100 | > 100 | > 100 | 45.6 | > 100 | – | – | – | – | – | – | – | – | – | – | – | –
11 | O=C1OC(=O)c2c1c(-c1ccccc1)nc1ccccc21 | > 100 | > 100 | > 100 | > 100 | – | > 100 | > 100 | > 100 | – | – | – | – | – | – | – | – | – | – | – | –
12 | O=Cc1ccc2c(c1I)OCO2 | > 100 | > 100 | > 100 | > 100 | – | > 100 | > 100 | > 100 | – | – | – | – | – | – | – | – | – | – | – | –
13 | ClC1=C(Cl)C(Cl)(Cl)c2c3c(c4c(c21)C(Cl)(Cl)C(Cl)=C4Cl)C(Cl)(Cl)C(Cl)=C3Cl | > 100 | > 100 | > 100 | > 100 | – | > 100 | – | > 100 | – | – | – | – | – | – | – | – | – | – | – | –
14 | c1ccc2c(c1)CCc1c-2n[nH]c1-c1[nH]nc2c1CCc1ccccc1-2 | > 100 | > 100 | > 100 | > 100 | > 100 | > 100 | > 100 | > 100 | – | – | – | – | – | – | – | – | – | – | – | –
15 | Cc1ccc(C2C3Cc4ccccc4C3=NN2c2ccc(S(=O)(=O)/N=c3\scc(-c4ccccc4)n3-c3ccccc3)cc2)cc1 (stereo not given) | 67.2 | 43.3 | – | 79.2 | 41.7 | – | – | 31.1 | 21.4 | 20.4 | – | 25.4 | 18.8 | – | 12.8 | – | – | – | 18.8 | 43.3
16 | NC1=NC(=O)C(CC(=O)Nc2ccc(Cl)cc2Cl)S1 (stereo not given) | – | > 100 | > 100 | > 100 | – | > 100 | > 100 | > 100 | – | – | – | – | – | – | – | – | – | – | – | –
17 | Cc1cc(=O)c2c(O)cc3c(c2o1)CC=C(COC1OC(COC2OC(CO)C(O)C(O)C2O)C(O)C(O)C1O)CO3 (stereo not given) | > 100 | > 100 | > 100 | > 100 | > 100 | > 100 | > 100 | > 100 | – | – | – | – | – | – | – | – | – | – | – | –

Row | Compound | TGI (NCI-H226 lung) [µM] | TGI (UACC-257 melanoma) [µM] | TGI (MALME-3M melanoma) [µM] | TGI (HCT-15 colon) [µM] | TGI (HOP-92 NSCLC) [µM] | TGI (NCI-H23 lung) [µM] | TGI (SNB-75 CNS) [µM] | TGI (MOLT-4 leukemia) [µM] | GI50 (NCI-H226 lung) [µM] | GI50 (UACC-257 melanoma) [µM] | GI50 (MALME-3M melanoma) [µM] | GI50 (HCT-15 colon) [µM] | GI50 (HOP-92 NSCLC) [µM] | GI50 (NCI-H23 lung) [µM] | GI50 (MOLT-4 leukemia) [µM] | GI50 (NCI/ADR-RES ovarian) [µM] | TGI (NCI/ADR-RES ovarian) [µM] | GI50 (SNB-75 CNS) [µM] | GI50 (BT-549 breast) [µM] | TGI (BT-549 breast) [µM]
18 | N[C@H](COCc1ccccc1)c1ccccc1 | 77.5 | > 81.1 | > 93.6 | > 79.4 | 62 | 57.5 | 56 | 45.7 | – | – | – | – | – | – | – | – | – | – | – | –
19 | Cc1ccccc1-n1c(N)c(-c2nc3ccccc3[nH]2)sc1=S | 74.4 | 36.6 | 45.1 | 71.7 | – | 45.4 | 56.6 | 70.6 | – | – | – | – | – | – | – | – | – | – | – | –
20 | COc1cc2cc(Oc3ccc(NC(=O)c4ccc(Cl)c(Cl)c4)cc3)c(C)nc2cc1OC | > 100 | > 100 | > 100 | > 100 | > 100 | > 100 | > 100 | > 100 | > 100 | > 100 | > 100 | 7.94 | 16.1 | 6.68 | 6.12 | – | – | > 100 | 3.91 | > 100
21 | Cc1ccc(NC(=O)C(=O)C(C(=O)/C=C/c2ccccc2)C2OC(=O)c3ccccc32)c(C)c1 (stereo not given) | > 100 | > 100 | > 100 | > 100 | > 100 | > 100 | > 100 | > 100 | – | – | – | – | – | – | – | – | – | – | – | –
22 | O=C(Cc1nc2ccccc2o1)C(=O)Nc1cccc(C(F)(F)F)c1 | > 100 | > 100 | > 100 | > 100 | > 100 | > 100 | > 100 | > 100 | – | – | – | – | – | – | – | – | – | – | – | –
23 | O=C(O)CCNS(=O)(=O)c1ccc([N+](=O)[O-])cc1 | > 100 | > 100 | > 100 | > 100 | > 100 | > 100 | > 100 | > 100 | – | – | – | – | – | – | – | – | – | – | – | –
24 | N#CC1(C#N)C(c2ccccc2)C=CC12OCCCO2 (stereo not given) | > 100 | > 100 | > 100 | – | > 100 | 91.4 | > 100 | 98.1 | – | – | – | – | – | – | – | – | – | – | – | –
25 | CC1=C(CC2C(=O)N(c3ccccc3)S(=O)(=O)NC2C)C(=O)N(c2ccccc2)S(=O)(=O)N1C (stereo not given) | > 100 | – | > 100 | > 100 | > 100 | > 100 | > 100 | > 100 | – | – | – | – | – | – | – | – | – | – | – | –
26 | CCOC(=O)/C(I)=C/c1cc(OC)c(OC)c(OC)c1 | 25.9 | 25.7 | 26.2 | 17.1 | 27.1 | 14.1 | > 100 | 40.3 | – | – | – | – | – | – | – | – | – | – | – | –
27 | COc1cc(C2(C)SCCCS2)cc(OC)c1OC | > 100 | > 100 | > 100 | > 100 | > 100 | > 100 | > 100 | > 100 | – | – | – | – | – | – | – | – | – | – | – | –
28 | C[C@@H]1O[C@@H](O[C@@H]2[C@@H](O)[C@H](OCCc3ccc(O)c(O)c3)O[C@H](CO)[C@H]2OC(=O)/C=C/c2ccc(O)c(O)c2)[C@H](O)[C@H](OC2OC[C@](O)(CO)[C@H]2O)[C@H]1O (stereo not given in full) | > 100 | 90.1 | – | > 100 | – | – | > 100 | > 100 | > 100 | 27 | – | > 100 | – | – | > 100 | – | – | > 100 | 12 | 27.2
29 | CCOC(=O)C1Nc2ccccc2[C@H]2OCC[C@@H]12 (stereo not given in full) | > 100 | > 100 | > 100 | > 100 | – | > 100 | > 100 | > 100 | – | – | – | – | – | – | – | – | – | – | – | –
30 | O=C(NCCNCCO)c1cccc2ccc(-c3ccccc3)nc12 | 17.4 | 14.2 | – | 14.8 | 11.7 | 15.3 | 22.3 | – | – | – | – | – | – | – | – | – | – | – | – | –
31 | COc1ccc(OC(=O)CC2Cc3cc(OC)c(OC)c(OC)c3-c3ccc(SC)c(=O)cc32)cc1 (stereo not given) | 0.782 | > 54.2 | > 100 | > 37.7 | 9.05 | 14.9 | > 100 | > 100 | – | – | – | – | – | – | – | – | – | – | – | –
32 | CC(C)(C)c1cc2nc(c1)C(C(F)(F)F)(C(F)(F)F)OB(Br)OC2(C(F)(F)F)C(F)(F)F | – | 0.188 | 4.42 | 13.8 | – | 17.2 | 13 | 0.28 | – | – | – | – | – | – | – | – | – | – | – | –
33 | C=C1[C@@H](O)O[C@H]2[C@H]1C[C@H](OC(C)=O)[C@]13C(=O)O[C@H]4C[C@](C)(O)[C@H]([C@H]41)C31C=C(C)[C@]2(O)O1 | – | 87.2 | 46.1 | > 100 | > 100 | – | – | > 100 | – | 25.6 | 16.3 | 49.2 | > 100 | – | 80.6 | 28 | 80.8 | – | – | –
34 | CC1=NN(c2ccccc2)C(=O)/C1=C\c1ccc([N+](=O)[O-])cc1 | – | > 100 | 69.3 | > 100 | – | 91 | > 100 | 48.4 | – | – | – | – | – | – | – | – | – | – | – | –
